Measurements taken from US8932597B2 (priority 2008, dated 2015).

Each substance was assayed on HuM2e antibody 23K12.
Type: binding, human

In order of falling “Signal (peptides that bind to 23K21 and 8I10)” value:
1. 127 (CSLLTEVETCSLLTEVETC; epitope peptide) [compound 127]  1647
2. 466 (SCLTEVGCSLLTEV; epitope peptide) [compound 466]  1250
3. 468 (SCLCECGSLLTEC; epitope peptide) [compound 468]  1244
4. 469 (MSLLTECGMSLLTEC; epitope peptide) [compound 469]  1236
5. 471 (SLLTEEETPIRNEWGCRCNDSSD; epitope peptide) [compound 471]  1220
6. 472 (SLLTECGSLCTEV; epitope peptide) [compound 472]  1218
7. 474 (SLLTECETPIRNEWGCRCNDSSD; epitope peptide) [compound 474]  1214
8. 475 (MSLLTECGMSLCTEV; epitope peptide) [compound 475]  1212
9. 161 (CPIRNEWGSRSNDSSDCSLLTEVETC; epitope peptide) [compound 161]  1206
10. 479 (SLLTEDETPIRNEWGCRCNDSSD; epitope peptide) [compound 479]  1196
11. 480 (SLLTECGCLCTCV; epitope peptide) [compound 480]  1193
12. 481 (CSLLTECGMSLCTEV; epitope peptide) [compound 481]  1187
13. 483 (CSLLTECGCSLLTEC; epitope peptide) [compound 483]  1177
14. 485 (CSLLTECGMCLCTCV; epitope peptide) [compound 485]  1168
15. 486 (SLFTEVETPIRNEWGCRCNDSSD; epitope peptide) [compound 486]  1156
16. 487 (SLLTNVETPIRNEWGCRCNDSSD; epitope peptide) [compound 487]  1142
17. 489 (MSLLTECGMCLLTEV; epitope peptide) [compound 489]  1111
18. 490 (SVLTEVETPIRNEWGCRCNDSSD; epitope peptide) [compound 490]  1109
19. 494 (SLLTEQETPIRNEWGCRCNDSSD; epitope peptide) [compound 494]  1102
20. 497 (SLLTECGSCLCEC; epitope peptide) [compound 497]  1077
21. 498 (SLLTEMETPIRNEWGCRCNDSSD; epitope peptide) [compound 498]  1076
22. 502 (CSCLCEVGSLLTEC; epitope peptide) [compound 502]  1064
23. 505 (SLLTEKETPIRNEWGCRCNDSSD; epitope peptide) [compound 505]  1055
24. 507 (SLCTEVETPIRNEWGCRCNDSSD; epitope peptide) [compound 507]  1050
25. 514 (SLLTEGETPIRNEWGCRCNDSSD; epitope peptide) [compound 514]  1029
26. 515 (SLLTEWETPIRNEWGCRCNDSSD; epitope peptide) [compound 515]  1025
27. 518 (SYLTEVETPIRNEWGCRCNDSSD; epitope peptide) [compound 518]  1019
28. 521 (SLLTAVETPIRNEWGCRCNDSSD; epitope peptide) [compound 521]  1012
29. 523 (SLLTEFETPIRNEWGCRCNDSSD; epitope peptide) [compound 523]  1009
30. 201 (CEVETPIRNEWGSRSNCSLLTEVETC; epitope peptide) [compound 201]  1007
31. 526 (MSLLTECGMSCLCEC; epitope peptide) [compound 526]  992
32. 530 (SLLTESETPIRNEWGCRCNDSSD; epitope peptide) [compound 530]  974
33. 213 (CETPIRNEWGSRSNDSCSLLTEVETC; epitope peptide) [compound 213]  971
34. 531 (MSLCTEVGMSLLTEC; epitope peptide) [compound 531]  970
35. 215 (CSLLTEVETCLTEVETPIRNEWGSRC; epitope peptide) [compound 215]  958
36. 539 (SLLTEYETPIRNEWGCRCNDSSD; epitope peptide) [compound 539]  950
37. 540 (SLLTEHETPIRNEWGCRCNDSSD; epitope peptide) [compound 540]  942
38. 548 (CSLLTECGSLCTEV; epitope peptide) [compound 548]  917
39. 550 (SLLTENETPIRNEWGCRCNDSSD; epitope peptide) [compound 550]  914
40. 223 (CVETPIRNEWGSRSNDCSLLTEVETC; epitope peptide) [compound 223]  905
41. 554 (CLLTEVGSLLTCV; epitope peptide) [compound 554]  902
42. 558 (CSLLTECGMSCLCEC; epitope peptide) [compound 558]  897
43. 561 (SCLTEVETPIRNEWGCRCNDSSD; epitope peptide) [compound 561]  892
44. 226 (CTEVETPIRNEWGSRSCSLLTEVETC; epitope peptide) [compound 226]  891
45. 567 (SLLTECGCSCLCEV; epitope peptide) [compound 567]  879
46. 574 (CLLTEVGSLLTEC; epitope peptide) [compound 574]  866
47. 230 (CTPIRNEWGSRSNDSSCSLLTEVETC; epitope peptide) [compound 230]  861
48. 578 (SLLTERETPIRNEWGCRCNDSSD; epitope peptide) [compound 578]  859
49. 589 (CSLLTECGMSCLTEV; epitope peptide) [compound 589]  846
50. 601 (SLLTECGSCLTEV; epitope peptide) [compound 601]  830
51. 604 (SLCTEVGSCLTEV; epitope peptide) [compound 604]  824
52. 239 (CSLLTEVETCEVETPIRNEWGSRSNC; epitope peptide) [compound 239]  821
53. 655 (SLYTEVETPIRNEWGCRCNDSSD; epitope peptide) [compound 655]  753

The substances below were run on anti-M2 human monoclonal antibody Z3G1.
Type: binding

In order of falling “Signal (peptides that show specific binding to Z3G1)” value:
1. 161 (CPIRNEWGSRSNDSSDCSLLTEVETC; epitope peptide) [compound 161]  2759
2. 127 (CSLLTEVETCSLLTEVETC; epitope peptide) [compound 127]  2555
3. 239 (CSLLTEVETCEVETPIRNEWGSRSNC; epitope peptide) [compound 239]  2549
4. 215 (CSLLTEVETCLTEVETPIRNEWGSRC; epitope peptide) [compound 215]  2328
5. 201 (CEVETPIRNEWGSRSNCSLLTEVETC; epitope peptide) [compound 201]  2288
6. 223 (CVETPIRNEWGSRSNDCSLLTEVETC; epitope peptide) [compound 223]  2233
7. 230 (CTPIRNEWGSRSNDSSCSLLTEVETC; epitope peptide) [compound 230]  2168
8. 226 (CTEVETPIRNEWGSRSCSLLTEVETC; epitope peptide) [compound 226]  2140
9. 213 (CETPIRNEWGSRSNDSCSLLTEVETC; epitope peptide) [compound 213]  1997
